From ChEMBL document CHEMBL3112408, “1,2,3-triazole-, arylamino- and thio-substituted 1,4-naphthoquinones: potent antitumor activity, electrochemical aspects, and bioisosteric replacement of C-ring-modified lapachones” (Bioorg Med Chem, 2014)

How the values were obtained:
MCF7 = assay: Cytotoxicity against human MCF7 cells assessed as cell viability after 72 hrs by MTT assay; assay type: functional, cell-based; settings: MCF7, 72 h
PC-3 = assay: Cytotoxicity against human PC3 cells assessed as cell viability after 72 hrs by MTT assay; assay type: functional, cell-based; settings: PC-3, 72 h
OVCAR-8 = assay: Cytotoxicity against human OVCAR8 cells assessed as cell viability after 72 hrs by MTT assay; assay type: functional, cell-based; settings: OVCAR-8, 72 h
HCT-116 = assay: Cytotoxicity against human HCT116 cells assessed as cell viability after 72 hrs by MTT assay; assay type: functional, cell-based; settings: HCT-116, 72 h
[1] = Cytotoxicity against human HCT8 cells assessed as cell viability after 72 hrs by MTT assay; assay type: functional, cell-based; settings: HCT-8, 72 h
MDA-MB-435 = assay: Cytotoxicity against human MDA-MB-435 cells assessed as cell viability after 72 hrs by MTT assay; assay type: functional, cell-based; settings: MDA-MB-435, 72 h
L929 = assay: Cytotoxicity against mouse L929 cells assessed as cell viability after 72 hrs by MTT assay; assay type: ADME, cell-based; settings: L929, 72 h
HL-60 = assay: Cytotoxicity against human HL60 cells assessed as cell viability after 72 hrs by MTT assay; assay type: functional, cell-based; settings: HL-60, 72 h
DU-145 = assay: Cytotoxicity against human DU145 cells assessed as cell viability after 72 hrs by MTT assay; assay type: functional, cell-based; settings: DU-145, 72 h
V79 = assay: Cytotoxicity against chinese hamster V79 cells assessed as cell viability after 72 hrs by MTT assay; assay type: cell-based; settings: Cricetulus griseus, V79, 72 h
SF-295 = assay: Cytotoxicity against human SF295 cells assessed as cell viability after 72 hrs by MTT assay; assay type: functional, cell-based; settings: SF-295, 72 h
[2] = Cytotoxicity against human Hs578T cells assessed as cell viability after 72 hrs by MTT assay; assay type: functional, cell-based; settings: Hs-578T
MX1 = assay: Cytotoxicity against human MX1 cells assessed as cell viability after 72 hrs by MTT assay; assay type: functional, cell-based; settings: MX1, 72 h
PBMC = assay: Cytotoxicity against human PBMC assessed as cell viability after 72 hrs by MTT assay; assay type: cell-based

SMILES | IC50 (MCF7) | IC50 (PC-3) | IC50 (OVCAR-8) | IC50 (HCT-116) | IC50 [1] | IC50 (MDA-MB-435) | IC50 (L929) | IC50 (HL-60) | IC50 (DU-145) | IC50 (V79) | IC50 (SF-295) | IC50 [2] | IC50 (MX1) | IC50 (PBMC)
CC1(C)CC(n2cc(C3CCCCC3)nn2)C2=C(O1)C(=O)c1ccccc1C2=O (stereo not drawn) | > 12 µM | 11.2 µM | 15.1 µM | 10.5 µM | 12.3 µM | 10.7 µM | 12.5 µM | 10.4 µM | 11.7 µM | 12 µM | 11.3 µM | 10.9 µM | > 12 µM | > 12 µM
CCCCCc1cn(C2CC(C)(C)OC3=C2C(=O)c2ccccc2C3=O)nn1 (stereo not drawn) | 3.16 µM | 3.66 µM | 6.67 µM | 4.93 µM | 4.45 µM | 2.77 µM | 4.98 µM | 1.37 µM | 2.48 µM | 5.59 µM | 2.77 µM | 3.08 µM | 2.4 µM | 7.77 µM
CCC(C)(O)c1cn(C2CC(C)(C)OC3=C2C(=O)c2ccccc2C3=O)nn1 (stereo not drawn) | 3.12 µM | 3.07 µM | 4.77 µM | 3.2 µM | 2.73 µM | 2.1 µM | 3.85 µM | 2.12 µM | 3.36 µM | 4.06 µM | 4.22 µM | 3.04 µM | 3.41 µM | 4.77 µM
CC1(C)OC2=C(C(=O)c3ccccc3C2=O)C1n1cc(-c2ccccc2)nn1 (stereo not drawn) | 6.95 µM | 5.82 µM | 7.22 µM | 8.27 µM | 9.07 µM | 4.95 µM | 8.4 µM | 4.34 µM | 4.68 µM | 7.62 µM | 3.44 µM | 5.76 µM | 5.92 µM | 8.02 µM
CCCCCCc1cn(C2C3=C(OC2(C)C)C(=O)c2ccccc2C3=O)nn1 (stereo not drawn) | 9.41 µM | 10.2 µM | 5.35 µM | 4.88 µM | 5.32 µM | 3.98 µM | 8.3 µM | 1.9 µM | 9.88 µM | 7.22 µM | 11.2 µM | 8.28 µM | 7.33 µM | 9.01 µM
CC1(C)OC2=C(C(=O)c3ccccc3C2=O)C1n1cc(C2CCCCC2)nn1 (stereo not drawn) | 5.78 µM | 4.29 µM | 5.38 µM | 5.51 µM | 6.7 µM | 2.76 µM | 6.62 µM | 2.7 µM | 5.48 µM | 6.12 µM | 3.18 µM | 4.95 µM | 4.21 µM | 7.36 µM
O=C1C=C(NCc2cn(CN3C(=O)c4ccccc4C3=O)nn2)C(=O)c2ccccc21 | > 12 µM | > 12 µM | > 12 µM | > 12 µM | > 12 µM | > 12 µM | > 12 µM | > 12 µM | > 12 µM | > 12 µM | > 12 µM | > 12 µM | > 12 µM | > 12 µM
O=C1C=C(NCc2cn(CCN3C(=O)c4ccccc4C3=O)nn2)C(=O)c2ccccc21 | > 11 µM | > 11 µM | > 11 µM | > 11 µM | > 11 µM | > 11 µM | > 11 µM | > 11 µM | > 11 µM | > 11 µM | > 11 µM | > 11 µM | > 11 µM | > 11 µM
O=C1C=C(NCc2cn(CCCN3C(=O)c4ccccc4C3=O)nn2)C(=O)c2ccccc21 | > 11 µM | > 11 µM | > 11 µM | > 11 µM | > 11 µM | > 11 µM | > 11 µM | > 11 µM | > 11 µM | > 11 µM | > 11 µM | > 11 µM | > 11 µM | > 11 µM
O=C1C=C(NCc2cn(CCCCN3C(=O)c4ccccc4C3=O)nn2)C(=O)c2ccccc21 | > 10 µM | > 10 µM | > 10 µM | > 10 µM | > 10 µM | > 10 µM | > 10 µM | > 10 µM | > 10 µM | > 10 µM | > 10 µM | > 10 µM | > 10 µM | > 10 µM
O=C1C(Cl)=C(NCc2cn(CN3C(=O)c4ccccc4C3=O)nn2)C(=O)c2ccccc21 | > 11 µM | > 11 µM | > 11 µM | > 11 µM | > 11 µM | > 11 µM | > 11 µM | > 11 µM | > 11 µM | > 11 µM | > 11 µM | > 11 µM | > 11 µM | > 11 µM
O=C1C(Cl)=C(NCc2cn(CCN3C(=O)c4ccccc4C3=O)nn2)C(=O)c2ccccc21 | > 10 µM | > 10 µM | > 10 µM | > 10 µM | > 10 µM | > 10 µM | > 10 µM | > 10 µM | > 10 µM | > 10 µM | > 10 µM | > 10 µM | > 10 µM | > 10 µM
O=C1C(Cl)=C(NCc2cn(CCCN3C(=O)c4ccccc4C3=O)nn2)C(=O)c2ccccc21 | > 10 µM | > 10 µM | > 10 µM | > 10 µM | > 10 µM | > 10 µM | > 10 µM | > 10 µM | > 10 µM | > 10 µM | > 10 µM | > 10 µM | > 10 µM | > 10 µM
O=C1C(Br)=C(NCc2cn(CN3C(=O)c4ccccc4C3=O)nn2)C(=O)c2ccccc21 | > 10 µM | > 10 µM | > 10 µM | > 10 µM | > 10 µM | > 10 µM | > 10 µM | > 10 µM | > 10 µM | > 10 µM | > 10 µM | > 10 µM | > 10 µM | > 10 µM
O=C1C(Br)=C(NCc2cn(CCN3C(=O)c4ccccc4C3=O)nn2)C(=O)c2ccccc21 | > 9 µM | > 9 µM | > 9 µM | > 9 µM | > 9 µM | > 9 µM | > 9 µM | > 9 µM | > 9 µM | > 9 µM | > 9 µM | > 9 µM | > 9 µM | > 9 µM
O=C1C(Cl)=C(NCc2cn(CCCCN3C(=O)c4ccccc4C3=O)nn2)C(=O)c2ccccc21 | > 10 µM | > 10 µM | > 10 µM | > 10 µM | > 10 µM | > 10 µM | > 10 µM | > 10 µM | > 10 µM | > 10 µM | > 10 µM | > 10 µM | > 10 µM | > 10 µM
CC(=O)OC[C@H]1OC(n2cc(CNC3=CC(=O)c4ccccc4C3=O)nn2)[C@H](OC(C)=O)[C@@H](OC(C)=O)[C@@H]1OC(C)=O (single isomer, unassigned) | > 8 µM | > 8 µM | > 8 µM | > 8 µM | > 8 µM | > 8 µM | > 8 µM | > 8 µM | > 8 µM | > 8 µM | > 8 µM | > 8 µM | > 8 µM | > 8 µM
